PubChem BioAssay (NCI)
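How tested: cells in 96-well plates exposed to compound for 48 hours at five concentrations. GI50 = concentration required for 50% inhibition of growth. TGI marks complete inhibition of growth.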

Assays:
Experiment in all cases: NCI tumour cell line growth inhibition, 48 h
[1] = tested on: COLO 205 colon
[2] = tested on: SF-268 CNS
[3] = tested on: NCI-H226 lung
[4] = tested on: MCF7 breast
[5] = tested on: KM12 colon
[6] = tested on: A498 renal
[7] = tested on: U251 CNS
[8] = tested on: RPMI-8226 leukemia
[9] = tested on: OVCAR-8 ovarian
[10] = tested on: UACC-62 melanoma

Structure (SMILES)	TGI [1]	TGI [2]	TGI [3]	TGI [4]	TGI [5]	TGI [6]	TGI [7]	TGI [8]	TGI [9]	TGI [10]	GI50 [1]	GI50 [2]	GI50 [3]	GI50 [4]	GI50 [5]	GI50 [6]	GI50 [7]	GI50 [8]	GI50 [9]
Cc1ccc(S(=O)(=O)N/C(=C\C=C\c2ccccc2)C(=O)C(C)(C)C)cc1	> 100 µM	> 100 µM	> 100 µM	> 100 µM	> 100 µM	> 100 µM	> 100 µM	75.9 µM	> 100 µM										
CCC(CCCN)Nc1cc(OC)cc2cccnc12 (stereo not given)	> 100 µM	> 100 µM	> 100 µM	> 100 µM	> 100 µM	> 100 µM			> 100 µM	> 100 µM									
CCC(C)[C@H](NC(=O)N[C@H](C)c1ccccc1)C(=O)OC (stereo not given in full)	> 100 µM		> 100 µM	> 100 µM	> 100 µM	> 100 µM	> 100 µM	> 100 µM	> 100 µM	> 100 µM									
COC(=O)c1cc(C)ccc1CC(Cc1cccc(C)c1)C(=O)OC (stereo not given)	> 100 µM	53.9 µM	> 100 µM	> 100 µM	> 100 µM	> 100 µM	> 100 µM	> 100 µM	> 100 µM										
CC(C)CCCC(C)[C@H]1CCC2[C@@H]3CCC4Cc5nc6c(nc5C[C@]4(C)C3CC[C@@]21C)CC1CC[C@@H]2C(C[C@@H](O)[C@@]3(C)C2C[C@@H]2OC4(CCC(C)CO4)C(C)[C@@H]23)[C@@]1(C)C6 (stereo not given in full)	> 100 µM	> 100 µM	> 100 µM	> 100 µM	> 100 µM		> 100 µM	> 100 µM	> 100 µM	> 100 µM									
CCCCOC(=O)CNC(=O)OCCCCC#CC#CCCCCOC(=O)NCC(=O)OCCCC	> 100 µM	> 100 µM	> 100 µM		> 100 µM	> 100 µM	> 100 µM	> 100 µM	> 100 µM	> 100 µM									
CCCCCc1cc(OC(=O)c2c(O)cc(OC)cc2CCCCC)cc(O)c1C(=O)O	34.5 µM	30 µM			34 µM	35.6 µM	29.1 µM	71.2 µM	36.3 µM	28.9 µM									
COC1=CC(=O)c2ccccc2C1(CCC=C(C)C)C1=NC(C)(C)CO1 (stereo not given)	> 100 µM	> 100 µM	> 100 µM		> 100 µM		> 100 µM	> 100 µM	> 100 µM	> 100 µM									
CCNC(=O)Nc1cccc(C)n1	> 100 µM	> 100 µM	> 100 µM	> 100 µM	> 100 µM	> 100 µM	> 100 µM		> 100 µM	> 100 µM									
Cc1nc2ccc(S(=O)(=O)Nc3ccc(Cl)cc3)cc2c(=O)n1NC(=O)CNc1ccc(Cl)cc1	> 100 µM	> 100 µM	> 100 µM	> 100 µM	> 100 µM		> 100 µM	> 100 µM	> 100 µM	> 100 µM									
CN(C)c1ccc(/C=N/Nc2nc3ccccc3c(=O)n2-c2ccccc2)cc1	> 100 µM	> 100 µM	> 100 µM	> 100 µM	> 100 µM	> 100 µM	> 100 µM		> 100 µM	93.6 µM									
N/N=C(\C(=O)Nc1c(Cl)cc([N+](=O)[O-])cc1Cl)C(c1cnc2ccc([N+](=O)[O-])cc2n1)[N+](=O)[O-] (stereo not given)	> 100 µM	> 100 µM	> 100 µM		> 100 µM	> 100 µM	> 100 µM	> 100 µM	> 100 µM	> 100 µM									
COC(=O)/C=C\Sc1ccn(/C=C\C(=O)OC)c(=S)n1	> 100 µM	65.9 µM		36.5 µM	42.8 µM	35.6 µM	39.9 µM	> 100 µM	38.1 µM										
c1ccc2c(-c3cnc(-c4c[nH]c5ccccc45)cn3)c[nH]c2c1	> 100 µM	> 100 µM		> 100 µM	> 100 µM	> 100 µM	> 100 µM	> 100 µM	> 100 µM	> 100 µM									
CC(=O)O[C@H]1CC[C@@]2(C)C(=CC[C@@H]3[C@@H]2CC[C@]2(C)C(c4cccnc4)=CC[C@@H]32)C1	> 100 µM	> 100 µM	> 100 µM	> 100 µM	> 100 µM	74 µM	> 100 µM	8.07 µM	> 100 µM		5.1 µM	9.61 µM	17.7 µM	4.84 µM	3.73 µM	10.4 µM	4.47 µM	2.81 µM	19.3 µM
